BindingDB's records for doi:10.1016/j.bmc.2016.08.020 (University of British Columbia, 2016)

Assay: Activation of p75NTR in mouse hippocampal neurons assessed as increase in cell survival after 48 hrs by MTT assay

With `CCC(C)C(N)C(=O)NCCN1CCOCC1` (stereo unspecified) the EC50 was 0.02 µM.
